Assay results from patent publication US20060045953A1 (priority 2004, published 2006).
Read-outs that look alike come from different tables or passages of the source. Blank lines part the entries; values can stand above or below the compound they belong to.

Tests used:
[1] = target: T1, hT1R2/hT1R3 sweet receptor (Homo sapiens, UniProt Q7RTX0+Q8TE23); test: In vitro hT1R2/hT1R3 sweet taste receptor activation assay (FLIPR, dose response); format: cell-based
T1 construct: expressed in transfected cells; host or cells: HEK293 derivative stably expressing Gα15, clone S-9
T1 sequence (Q8TE23 20-839): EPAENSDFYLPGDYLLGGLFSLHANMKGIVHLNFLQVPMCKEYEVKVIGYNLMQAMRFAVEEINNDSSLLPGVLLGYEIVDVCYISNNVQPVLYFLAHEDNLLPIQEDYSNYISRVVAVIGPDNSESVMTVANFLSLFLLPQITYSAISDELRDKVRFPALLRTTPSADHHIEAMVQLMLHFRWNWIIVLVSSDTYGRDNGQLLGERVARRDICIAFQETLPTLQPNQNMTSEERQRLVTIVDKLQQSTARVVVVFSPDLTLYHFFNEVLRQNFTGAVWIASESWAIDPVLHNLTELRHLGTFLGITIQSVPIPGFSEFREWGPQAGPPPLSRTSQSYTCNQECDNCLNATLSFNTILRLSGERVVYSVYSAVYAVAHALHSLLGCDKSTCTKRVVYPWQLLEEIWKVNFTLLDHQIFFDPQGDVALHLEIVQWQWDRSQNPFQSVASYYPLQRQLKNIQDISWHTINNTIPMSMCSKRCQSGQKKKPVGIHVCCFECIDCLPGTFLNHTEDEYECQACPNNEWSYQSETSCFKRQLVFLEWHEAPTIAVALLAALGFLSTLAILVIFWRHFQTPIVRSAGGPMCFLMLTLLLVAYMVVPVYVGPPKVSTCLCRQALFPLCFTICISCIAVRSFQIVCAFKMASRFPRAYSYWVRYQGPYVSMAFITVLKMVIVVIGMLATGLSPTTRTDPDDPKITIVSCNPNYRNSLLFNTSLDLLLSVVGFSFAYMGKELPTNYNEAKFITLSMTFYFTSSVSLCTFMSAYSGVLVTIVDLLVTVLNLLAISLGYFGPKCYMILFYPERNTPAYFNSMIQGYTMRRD
T1 sequence (Q7RTX0 21-852): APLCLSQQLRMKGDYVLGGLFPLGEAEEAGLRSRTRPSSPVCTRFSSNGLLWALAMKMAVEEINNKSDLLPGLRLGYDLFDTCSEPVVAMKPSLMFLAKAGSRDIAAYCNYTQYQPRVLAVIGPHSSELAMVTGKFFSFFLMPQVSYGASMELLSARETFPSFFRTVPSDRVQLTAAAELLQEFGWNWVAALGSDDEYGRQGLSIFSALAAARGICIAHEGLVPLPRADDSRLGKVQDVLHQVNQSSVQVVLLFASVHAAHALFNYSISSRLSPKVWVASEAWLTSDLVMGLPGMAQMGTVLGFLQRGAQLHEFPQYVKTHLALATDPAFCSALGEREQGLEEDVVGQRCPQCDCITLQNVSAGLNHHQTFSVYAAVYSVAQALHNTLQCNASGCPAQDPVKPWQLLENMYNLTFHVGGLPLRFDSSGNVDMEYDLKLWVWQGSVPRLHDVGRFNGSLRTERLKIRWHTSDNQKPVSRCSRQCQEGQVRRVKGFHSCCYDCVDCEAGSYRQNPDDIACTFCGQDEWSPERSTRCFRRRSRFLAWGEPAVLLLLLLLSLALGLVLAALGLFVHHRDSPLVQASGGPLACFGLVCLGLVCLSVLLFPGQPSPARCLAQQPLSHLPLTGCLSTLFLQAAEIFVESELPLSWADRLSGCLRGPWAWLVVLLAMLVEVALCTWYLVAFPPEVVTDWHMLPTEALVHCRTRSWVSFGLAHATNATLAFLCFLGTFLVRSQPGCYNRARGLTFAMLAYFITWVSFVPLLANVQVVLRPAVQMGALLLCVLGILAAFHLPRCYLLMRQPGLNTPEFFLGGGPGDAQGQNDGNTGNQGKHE
How it was run: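 S-9 cells expressing hT1R2/hT1R3, loaded with 4 µM Fluo-3AM 1 h at room temperature. Calcium response on FLIPR at room temperature in D-PBS, with 10 concentrations from 60 nM to 30 µM in duplicate.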

human subjects = test: "Difference from Reference" human taste test (sweetness); format: in vivo
From the text: To determine how the intensity of a test sample of an experimental compound differs from that of a reference sample in terms of sweetness. This type of study requires a larger panel (typically 15-20 Subjects) in order to obtain statistically significant data.
Subjects rate the difference in intensity of the test sample compared to the reference sample for the key attribute on a scale of −5 (much less sweet than the reference) to +5 (much more sweet than the reference). A score of 0 indicates the test sample is equally as sweet as the reference.
Ten or more Subjects are used for the “Difference from Reference” tests. Subjects have been previously familiarized with the key attribute taste and are trained to use the −5 to +5 scale. Subjects refrain from eating or drinking (except water) for at least 1 hour prior to the test. Subjects eat a cracker and rinse with water four times to clean the mouth.
Test solutions can include the experimental compound in water, the experimental compound plus a key tastant (e.g., 4% sucrose, 6% sucrose, 6% fructose, 6% fructose/glucose, or 7% fructose/glucose, at pH 7.1 or 2.8), and a range of key tastant only solutions as references.
Samples of the key tastant without the experimental compound are used to determine if the panel is rating accurately; i.e., the reference is tested against itself (blind) to determine how accurate the panel is rating on a given test day. The solutions are dispensed in 10 ml volumes into 1 oz. sample cups and served to the Subjects at room temperature.
Subjects first taste the reference sample then immediately taste the test sample and rate the difference in intensity of the key attribute on the Difference from Reference scale (−5 to +5). All samples are expectorated. Subjects may retaste the samples but can only use the volume of sample given. Subjects must rinse at least twice with water between pairs of samples. Eating a cracker between sample pairs may be required depending on the samples tasted.
The scores for each test are averaged across Subjects and standard error is calculated. Panel accuracy can be determined using the score from the blind reference test. ANOVA and multiple comparison tests (such as Tukey's Honestly Significant Difference test) can be used to determine differences among pairs, provided the reference sample is the same among all tests. If the identical test pair is tested in another session, a Student's t-test (paired, two-tailed; alpha=0.05) can be used to determine if there is any difference in the ratings between sessions.
A number of different reference sweeteners have been utilized for the measurement of sweet taste enhancement. […]

[2] = target: T2, hT1R1/hT1R3 umami receptor (Homo sapiens, UniProt Q7RTX0+Q7RTX1); test: Umami taste enhancement assay: shift of the MSG EC50 (EC50 ratio vs. MSG); format: cell-based; settings: Table E
T2 construct: expressed in transfected cells; host or cells: HEK293 derivative stably expressing Gα15, clone I-17, expression induced with mifepristone
T2 sequence (Q7RTX1 21-841): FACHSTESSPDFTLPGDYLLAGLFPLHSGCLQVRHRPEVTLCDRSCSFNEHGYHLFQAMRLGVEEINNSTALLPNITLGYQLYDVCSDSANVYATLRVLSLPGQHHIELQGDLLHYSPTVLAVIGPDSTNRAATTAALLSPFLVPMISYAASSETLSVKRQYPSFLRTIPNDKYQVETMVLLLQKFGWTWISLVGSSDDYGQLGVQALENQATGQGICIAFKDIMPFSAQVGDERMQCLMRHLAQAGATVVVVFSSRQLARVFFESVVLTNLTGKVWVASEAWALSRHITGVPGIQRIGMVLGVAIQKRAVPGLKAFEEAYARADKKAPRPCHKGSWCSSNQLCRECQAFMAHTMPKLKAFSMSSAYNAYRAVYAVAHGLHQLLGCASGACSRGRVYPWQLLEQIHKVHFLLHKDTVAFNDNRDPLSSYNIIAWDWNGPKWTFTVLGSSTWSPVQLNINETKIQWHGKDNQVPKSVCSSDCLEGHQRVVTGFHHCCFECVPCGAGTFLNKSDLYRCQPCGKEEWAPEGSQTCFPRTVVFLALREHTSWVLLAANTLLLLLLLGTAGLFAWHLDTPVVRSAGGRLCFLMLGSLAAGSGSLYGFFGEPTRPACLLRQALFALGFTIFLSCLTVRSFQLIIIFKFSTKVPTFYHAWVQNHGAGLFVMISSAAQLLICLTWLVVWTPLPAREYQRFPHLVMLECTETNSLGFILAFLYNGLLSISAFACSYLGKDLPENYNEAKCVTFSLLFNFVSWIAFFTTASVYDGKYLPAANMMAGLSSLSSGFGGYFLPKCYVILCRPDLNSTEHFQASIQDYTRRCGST
T2 sequence (Q7RTX0 21-852): T1 sequence (Q7RTX0 21-852)
Method: A series of measurements of the dose response is run in solutions comprising MSG alone, then a second dose response is run with MSG in combination with predetermined amounts of a candidate compound of Formula (I) at the same time.
Typical compound concentrations tested were 30 μM, 10 μM, 3 μM, 1 μM, 0.3 μM, 0.1 μM and 0.03 μM. The relative efficacy of compounds of Formula (I) at enhancing the receptor was determined by calculating the magnitude of a shift in the EC50 for monosodium glutamate. Enhancement was defined as a ratio (EC50R) corresponding to the EC50 of monosodium glutamate, determined in the absence of the test compound, divided by the EC50 of monosodium glutamate, determined in the presence of the test compound.
Stated alternatively, “EC50 ratio” as compared to MSG is calculated based on the following definitions: EC50 Ratio vs. MSG=EC50 (MSG)/EC50 (MSG+[Compound]) • wherein “[compound]” refers to the concentration of the compound of Formula (I) used to elicit (or enhance or potentiate) the MSG dose response.

[3] = read-out: EC50 for activation of a hT1R2/hT1R3 sweet receptor expressed in an HEK293 cell line

- EC50 [1, 3]: 5800 nM
Compound: Cc1nocc1C(=O)N[C@@H]1CCCc2ccccc21 [Example 175, 3-Methyl-isoxazole-4-carboxylic acid (1,2,3,4-tetrahydro-naphthalen-1-yl)-amide]
- Perceived Equivalent Sweet Solution (human subjects; 50 μM compound + 4% sucrose, pH not measured or controlled): 6% sucrose

- EC50 [1, 3]: 520 nM
- melting point: 124 to 125 °C
Compound: Cc1cc(C)c2c(c1)[C@H](NC(=O)c1conc1C)CCC2 [Example 176, (R)—N—(5,7-Dimethyl-1,2,3,4-tetrahydronaphthalen-1-yl)-3-methylisoxazole-4-carboxamide]
- Perceived Equivalent Sweet Solution (human subjects; 10 μM compound + 7% fructose/glucose, pH 2.8): Equal to 10.5% fructose/glucose
- Perceived Equivalent Sweet Solution (human subjects; 10 μM compound + 7% fructose/glucose, pH 7.1): Equal to 10% fructose/glucose

- EC50 [1, 3]: 180 nM
- melting point: 175 to 176 °C
Compound: COc1cccc2c1CCC[C@H]2NC(=O)c1cccc(Cl)c1O [Example 177, (R)-3-Chloro-2-hydroxy-N-(5-methoxy-1,2,3,4-tetrahydronaphthalen-1-yl) benzamide]
- Perceived Equivalent Sweet Solution (human subjects; 3 μM compound + 6% fructose/glucose, pH 7.1): Equal to 10% fructose/glucose

- EC50 ([1]; Table E, Sweet Enhancer Amides, read-out: Sweet EC50): 950 nM
- Umami EC50 ratio [2]: 2.81 (10 M cpd)
Compound: O=C(N[C@@H]1CCc2ccccc21)c1cccc(Cl)c1O [Example E127, (R)-3-chloro-N-(2,3-dihydro-1H-inden-1-yl)-2-hydroxybenzamide]
